Here are results for two molecules from ChEMBL document CHEMBL5727849, “Piperidinone formyl peptide 2 receptor and formyl peptide 1 receptor agonists” (2020).

One assay concerns the target T1, fMet-Leu-Phe receptor (Homo sapiens, UniProt P21462).
T1 sequence (P21462 whole entry): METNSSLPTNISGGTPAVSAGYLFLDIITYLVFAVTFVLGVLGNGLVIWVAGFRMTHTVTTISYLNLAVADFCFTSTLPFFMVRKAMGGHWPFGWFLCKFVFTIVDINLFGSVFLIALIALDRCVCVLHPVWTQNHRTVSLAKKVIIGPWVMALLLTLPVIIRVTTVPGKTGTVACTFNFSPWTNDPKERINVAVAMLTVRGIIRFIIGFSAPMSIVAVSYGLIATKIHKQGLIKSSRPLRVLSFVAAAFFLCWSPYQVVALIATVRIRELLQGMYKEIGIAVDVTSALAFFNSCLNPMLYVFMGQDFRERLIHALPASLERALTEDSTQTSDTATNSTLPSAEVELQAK
In words: (§1) cAMP Assay: FPR2 and FPR1 Cyclic Adenosine Monophosphate (cAMP) Assays. A mixture of forskolin (5 μM final for FPR2 or 10 μM final for FPR1) and IBMX (200 μM final) were added to 384-well Proxiplates (Perkin-Elmer) pre-dotted with test compounds in DMSO (1% final) at final concentrations in the range of 0.020 nM to 100 μM. Chinese Hamster Ovary cells (CHO) overexpressing human FPR1 or human FPR2 receptors were cultured in F-12 (Ham's) medium supplemented with 10% qualified FBS, 250 μg/ml zeocin and 300 μg/ml hygromycin (Life Technologies). Reactions were initiated by adding 2,000 human FPR2 cells per well or 4,000 human FPR1 cells per well in Dulbecco's PBS (with calcium and magnesium) (Life Technologies) supplemented with 0.1% BSA (Perkin-Elmer). The reaction mixtures were incubated for 30 min at room temperature. The level of intracellular cAMP was determined using the HTRF HiRange cAMP assay reagent kit (Cisbio) according to manufacturer's instruction. Solutions of cryptate conjugated anti-cAMP and d2 flurorophore-labelled cAMP were made in a supplied lysis buffer separately. Upon completion of the reaction, the cells were lysed with equal volume of the d2-cAMP solution and anti-cAMP solution. After a 1-h room temperature incubation, time-resolved fluorescence intensity was measured using the Envision (Perkin-Elmer) at 400 nm excitation and dual emission at 590 nm and 665 nm. The class given is cell-based. For orientation: Time-resolved FRET reads energy transfer from a long-lived donor to a nearby acceptor.

The target of assay [1] is T2, N-formyl peptide receptor 2 (Homo sapiens, UniProt P25090).
T2 sequence (P25090 whole entry): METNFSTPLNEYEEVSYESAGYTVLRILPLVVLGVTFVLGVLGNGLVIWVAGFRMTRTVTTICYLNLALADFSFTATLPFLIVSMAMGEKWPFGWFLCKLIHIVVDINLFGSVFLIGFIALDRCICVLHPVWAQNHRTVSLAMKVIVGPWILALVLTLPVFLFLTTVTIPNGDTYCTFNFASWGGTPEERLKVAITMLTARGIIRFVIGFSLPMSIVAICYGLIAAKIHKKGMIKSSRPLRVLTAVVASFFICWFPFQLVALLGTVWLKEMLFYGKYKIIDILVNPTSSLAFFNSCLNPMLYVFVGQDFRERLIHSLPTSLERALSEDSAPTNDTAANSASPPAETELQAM
The description is as §1. The class given is cell-based.

On to `NC(=O)c1ccccc1-c1ccc(N2CCC[C@@H](NC(=O)Nc3ccc(F)c(F)c3)C2=O)cc1`, for which the EC50 at fMet-Leu-Phe receptor was determined as 1.7 µM; in assay [1], 0.84 µM.
As to `O=C(Nc1ccc(Cl)cc1)N[C@@H]1CCCN(c2ccc(-c3c(Cl)cccc3Cl)cc2)C1=O`, the results for the EC50 (at fMet-Leu-Phe receptor; in assay [1]) were 0.014 µM and 0.011 µM, respectively.

As usually defined, the EC50 is the concentration at which the effect is half-maximal.
